Calls of active or inactive are those of the source. The calls are words filed in the database; no cut-off is given here.
What was measured:
Rattus norvegicus [1] = species: Rattus norvegicus; test: Postsynaptic agonistic activity using motor activity test in reserpinized rats per 30 min; format: functional
Rattus norvegicus [2] = species: Rattus norvegicus; test: Dose required for postsynaptic agonism using motor activity test in reserpinized rats; format: functional
[3] = biological target: T1, Dopamine receptor (Rattus norvegicus) (UniProt P25115+P19020+P30729+P18901+P61169); test: Compound was tested for presynaptic agonistic activity against dopamine receptor in limbic system; I= Inactive; format: functional, tissue-based
[4] = biological target: T1, Dopamine receptor (Rattus norvegicus); test: Compound was tested or presynaptic agonistic activity against dopamine receptor in striatum; I= Inactive; format: functional, tissue-based
Rattus norvegicus [5] = species: Rattus norvegicus; test: Compound was evaluated for postsynaptic agonistic activity using motor activity test in reserpinized rats per 30 min; ns= Not significant; format: functional
Rattus norvegicus [6] = test: Dose required for postsynaptic agonism using motor activity test in reserpinized rats; I= Inactive at 2 umol/kg; format: functional, organism-based
[7] = biological target: T1, Dopamine receptor (Rattus norvegicus); test: Compound was tested or presynaptic agonistic activity against dopamine receptor in striatum; Inactive; format: functional, tissue-based
[8] = biological target: T1, Dopamine receptor (Rattus norvegicus); test: Compound was tested for presynaptic agonistic activity against dopamine receptor in limbic system; Inactive; format: functional, tissue-based

| Structure (SMILES) | Acc. counts (Rattus norvegicus [1]) | Dose (Rattus norvegicus [2]) [µM/kg] | other results |
| --- | --- | --- | --- |
| CN(C)C1CCc2c(O)cccc2C1 (configuration not stated) | 52 | 100 |  |
| Oc1cccc2c1CCC(N1CCCCC1)C2 (configuration not stated) |  |  | ED50 [3]: inactive; ED50 [4]: inactive |
| CCNC1CCc2c(O)cccc2C1 (configuration not stated) | 181 | 2 |  |
| CN1CCc2cccc3c2[C@H]1Cc1ccc(O)c(O)c1-3 [APOMORPHINE] | 361 | 2.3 |  |
| CCCN1CCC[C@H](c2cccc(O)c2)C1 | 78 | 13 |  |
| CCCN(C)C1CCc2c(O)cccc2C1 (configuration not stated) | 239 | 2 |  |
| Oc1cccc2c1CC[C@@H]1NCCC[C@@H]21 |  | 106 | Acc. counts (Rattus norvegicus [5]): 10 |
| CN1CCCC2c3cccc(O)c3CCC21 (configuration not stated) | 40 | 100 |  |
| CCCN1CCC[C@@H](c2ccc(O)c(O)c2)C1 | 24 | 50 |  |
| CCCCNC1CCc2c(O)cccc2C1 (configuration not stated) |  |  | Dose (Rattus norvegicus [6]): inactive; ED50 [7]: inactive; ED50 [8]: inactive |
| Oc1ccc2c(c1)C1CCCNC1CC2 (configuration not stated) |  | 106 | Acc. counts (Rattus norvegicus [5]): 10 |
| CN1CCCC2c3cc(O)ccc3CCC21 (configuration not stated) | 60 | 106 |  |
| CCCN(CCC)[C@@H]1Cc2cccc(O)c2C[C@H]1C | 155 | 0.31 |  |
| CCCN1CCC[C@@H](c2cccc(O)c2)C1 [PRECLAMOL] | 12 | 213 |  |
| CCCN1CCC[C@H]2c3cccc(O)c3CC[C@@H]21 | 62 | 1.3 |  |
| CCCN1CCC[C@@H]2c3cc(O)ccc3CC[C@H]21 | 155 | 1.06 |  |
| CCCN(CCC)[C@@H]1CCc2ccc(O)cc2C1 | 46 | 0.31 |  |
| CNC1CCc2c(O)cccc2C1 (configuration not stated) |  | 100 | Acc. counts (Rattus norvegicus [5]): 18 |
